Measured values reported in article PMC3360681, “Comparison of Recombinant Human Haptocorrin Expressed in Human Embryonic Kidney Cells and Native Haptocorrin” (PLoS ONE, 2012).
One block for each molecule: values may come before it.

Key:
[1] = system: native HC (native human haptocorrin); set-up: method as in PMID 17487979; conditions: 20°C, cited from earlier work; for k−s dissociation rate constant: pH 7.5, measured over a period of 100 h; for k+s binding rate constant: pH 7.5
[2] = biological target: T1, rhHC (recombinant human haptocorrin) (Homo sapiens, UniProt P20061); assay: Binding and dissociation kinetics with fluorescent Cbl-conjugate CBC (stopped-flow competition and chase experiments); conditions: pH 7.5
T1 construct: Myc-His-tag (Myc + 6xHis, from pcDNA4/myc-His A) (C, cleaved yes); made in house
T1 sequence (P20061 24-433): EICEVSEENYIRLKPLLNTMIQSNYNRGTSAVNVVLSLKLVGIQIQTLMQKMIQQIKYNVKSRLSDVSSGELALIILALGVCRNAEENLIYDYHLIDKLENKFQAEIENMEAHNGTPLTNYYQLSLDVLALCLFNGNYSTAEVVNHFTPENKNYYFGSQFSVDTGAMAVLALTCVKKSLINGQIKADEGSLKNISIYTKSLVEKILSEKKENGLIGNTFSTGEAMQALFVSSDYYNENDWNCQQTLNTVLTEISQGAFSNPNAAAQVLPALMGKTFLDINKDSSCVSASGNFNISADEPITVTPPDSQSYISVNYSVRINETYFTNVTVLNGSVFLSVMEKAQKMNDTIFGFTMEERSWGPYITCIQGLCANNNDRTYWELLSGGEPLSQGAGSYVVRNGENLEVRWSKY
Protocol: A more detailed examination of the binding kinetics was performed in a competitive assay, where the fluorescent ligand CBC [32] alone or in the mixture with a test ligand (Cbl or Cbi) reacted with rhHC over time. Attachment of CBC to Cbl-binding proteins causes increase in the quantum yield of the fluorophore, which facilitates monitoring of the protein - CBC interactions, [33]. Presence of a non-fluorescent ligand X decreases the signal, because the binding goes along two competing routes HC•CBC ← HC → HC·X (reactions behave as irreversible processes within 0.2 s). The binding and dissociation rate constants k +s and k−s, as well as the equilibrium dissociation constant KD were calculated for all ligands by computer fitting as explained elsewhere and the results are listed in Table 2. Compared to previously reported values for native HC, all current binding rate constants (k +s) were 2–3 fold lower. This difference could not be explained by possible concentration error (±10%, examined by simulations).
The dissociation kinetics was examined in chase experiments which obeyed (within the examined time scale) one of the below schemes: HC·CBC → HC → HC·X or HC·X → HC → HC·CBC (first step was rate limiting). The dissociation kinetics of the ligands CBC, Cbl and Cbi was measured after formation of the corresponding complexes with rhHC, followed by addition of external CBC (or Cbl in the case of CBC itself) (Figure 5B). The dissociation rate constants were then calculated from linear slopes (Table 2). […] It should be understood, that evaluation of rate constants below 3 · 10^−6 s^−1 within the examined time scale cannot be precise, and that the records were used for comparison of different ligands rather than for precise quantification of k −s.
[…] The binding kinetics was monitored by means of stopped flow method (DX.17 MV stopped-flow spectro-fluorometer, Applied Biophysics, UK) using the fluorescent response from a Cbl-conjugate CBC [32], [33], excitation 525 nm, emission >550 nm, slit 1.5 mm, voltage 390, bandpass of 18.6 nm, light path of 1 cm. […] The relevant rate constants of association were calculated by computer fitting, as described elsewhere, [33].
The dissociation reactions were monitored on fluorometer Varian Eclipse (Varian, Australia) using the fluorescent response of CBC, excitation 525 nm (slit 5 nm), emission 550 nm (slit 5 nm), photomultiplier 600 V. In one setup the pre-formed rhHC·CBC complex (1 µM, 2 min) was mixed with free Cbl (1 µM), and decrease in fluorescence was registered due to rhHC·CBC ↔ Cbl exchange. Dissociation of the non-fluorescent ligands (Cbl or Cbi) was measured in similar chase experiments. […] The endogenous ligand dissociated from the protein (rate limiting step), whereupon CBC immediately bound to rhHC and increased fluorescence.

TC (transcobalamin) = biological target: T2, TC (transcobalamin) (Homo sapiens, UniProt P20062); assay: Concurrent binding kinetics test with CBC and Cbl; conditions: data not shown
T2 sequence (P20062 19-427): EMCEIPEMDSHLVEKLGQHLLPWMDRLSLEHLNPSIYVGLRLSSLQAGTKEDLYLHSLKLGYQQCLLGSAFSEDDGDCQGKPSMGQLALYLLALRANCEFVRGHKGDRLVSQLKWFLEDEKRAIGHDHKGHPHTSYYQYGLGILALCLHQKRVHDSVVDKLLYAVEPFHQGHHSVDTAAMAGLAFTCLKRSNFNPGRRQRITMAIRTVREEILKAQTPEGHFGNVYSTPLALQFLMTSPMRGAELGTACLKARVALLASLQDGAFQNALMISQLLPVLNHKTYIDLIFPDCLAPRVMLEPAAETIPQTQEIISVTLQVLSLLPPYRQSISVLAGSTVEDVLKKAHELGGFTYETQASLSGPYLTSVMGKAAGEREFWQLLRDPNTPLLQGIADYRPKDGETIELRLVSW

IF (intrinsic factor) = IF (intrinsic factor) (Homo sapiens, UniProt P27352); assay: Concurrent binding kinetics test with CBC and Cbl; conditions: data not shown
Chain of IF (intrinsic factor) (P27352 19-417, species assumed): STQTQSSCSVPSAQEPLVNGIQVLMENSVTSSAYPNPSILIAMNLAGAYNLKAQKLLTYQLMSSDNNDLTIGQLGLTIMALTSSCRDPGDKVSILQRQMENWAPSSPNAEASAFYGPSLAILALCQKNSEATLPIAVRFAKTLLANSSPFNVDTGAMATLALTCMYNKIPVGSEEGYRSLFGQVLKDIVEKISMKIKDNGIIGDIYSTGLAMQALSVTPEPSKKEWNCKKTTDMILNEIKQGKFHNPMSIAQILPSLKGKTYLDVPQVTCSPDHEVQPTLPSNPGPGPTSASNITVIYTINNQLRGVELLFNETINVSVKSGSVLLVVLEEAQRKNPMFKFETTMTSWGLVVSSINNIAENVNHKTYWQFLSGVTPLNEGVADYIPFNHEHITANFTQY

[3] = Active protein fraction (AP) from absorbance ratio A280/A356 after saturation with aquo-Cbl; assay type: binding
Text: The spectral features of the complex rhHC•aquo-Cbl were explored further when rhHC was saturated with aquo-Cbl added in steps at concentrations below the total binding capacity of the protein (Figure 3B). This allowed calculation of the molar absorbance coefficients of aquo-Cbl when bound to rhHC (Table 1). These parameters helped to evaluate the active protein fraction (AP) as previously shown for IF [27]. For rhHC the value of AP was found from the ratio of R = A280/A356 according to the equation below and the values of absorbance coefficients from Table 1. [drawing 1]
Prior to AP measurements, rhHC was saturated with an excess of aquo-Cbl, free aquo-Cbl was bound to the specific tetrazole adsorbent, whereupon the spectrum of rhHC·Cbl was recorded and compared to the control sample (buffer + aquo-Cbl + adsorbent). After subtraction of the control spectrum, the absorbance ratio and AP were calculated.
rhHC (10 µM) was saturated with an excess of CNCbl (20 µM) and subjected to dialysis against a 50-fold volume excess of 5 M GdnHCl (30°C, 180 rpm). The solution was changed at days 2 and 3. Incubation was stopped after day 4, whereupon rhHC was renatured by dialysis against 0.2 M Na-phosphate buffer pH 7.5, see also ref. [31].

[4] = system: HepG2 cells expressing the asialoglycoprotein receptor; assay: Internalisation of 125I-labelled proteins into HepG2 cells; assay type: cell-based; conditions: 125I-labelled protein
Text: Depending on the source of expression, different isoforms of HC exist in human blood and extracellular fluids. […] We tested whether ^125I-labelled rhHC would be readily taken up by HepG2 cells expressing the asialoglycoprotein receptor involved in HC clearance. […] Only after removal of terminal sialic acid by neuraminidase, rhHC and native HC were internalised. Removal of the terminal sialic acid residues was qualitatively determined by SDS/PAGE (Figure 6A).
The proteins were labelled with ^125I using the Iodogen method (Pierce). Labelled protein was purified on a PD10 column (GE healthcare, Glattbrugg, Switzerland). HEPG2 cells were incubated in twelve-well plates in triplicates with about 1 µg of labelled protein for 1 h at 4°C. The plates were then incubated for 0, 1.5, 3, 6 h at 37°C for internalisation. After these times, the cells were washed twice with PBS/0.1% bovine serum albumin and then incubated for 5 min with ice-cold acid wash buffer (50 mM Glycine-HCl, 100 mM NaCl, pH 2.8) to remove the cell-surface bound radioligand. Subsequently, cells were solubilised by incubation with 1 N NaOH for 5 min. at 37°C. At each time point the radioactivity in the cell medium (released), the acid wash (cell-surface bound) and the solubilised cells (internalised) were determined with a NaI-γ-counter (Cobra II Packard, Canberra Packard GmbH, Frankfurt, Germany).

[5] = rhHC preparation with active protein fraction 0.95
[6] = after removal of terminal sialic acid by neuraminidase
[7] = without neuraminidase treatment, time span of 6 h

Molecule: CC1=C2[N-][C@H]([C@H](CC(N)=O)[C@@]2(C)CCC(=O)NC[C@@H](C)O)[C@]2(C)N=C(C(C)=C3N=C(C=C4N=C1[C@@H](CCC(N)=O)C4(C)C)[C@@H](CCC(N)=O)[C@]3(C)CC(N)=O)[C@@H](CCC(N)=O)[C@]2(C)CC(N)=O.[Co+2] [Cbi, cobinamide]
- k−s dissociation rate constant [1]: ≈5 · 10^−7 s^−1
- k+s binding rate constant [1]: 7.3e+07 M⁻¹ s⁻¹
- k+s binding rate constant [2, 5]: 21 10^6 M^−1s^−1
- k+s binding rate constant ([2]; rhHC preparation with active protein fraction 0.99): 33 10^6 M^−1s^−1

- k+s binding rate constant [2, 5]: X/19/X· 10^6 10^6 M^−1s^−1
- k−s dissociation rate constant [2, 5]: X/≤3/X· 10^−6 10^−6 s^−1
- k+s binding rate constant (TC (transcobalamin)): 60–70 · 10^6 M^−1 s^−1
- k+s binding rate constant (IF (intrinsic factor)): 60–70 · 10^6 M^−1 s^−1
Molecule: C/C1=C2/[N-][C@H]([C@H](CC(N)=O)[C@@]2(C)CCC(=O)NC[C@@H](C)OP(=O)([O-])O[C@H]2[C@@H](O)[C@@H](n3cnc4cc(C)c(C)cc43)O[C@@H]2CO)[C@]2(C)N=C(/C(C)=C3N=C(/C=C4N=C1[C@@H](CCC(N)=O)C\4(C)C)[C@@H](CCC(N)=O)[C@]\3(C)CC(N)=O)[C@@H](CCC(N)=O)[C@]2(C)CC(N)=O.[Co] [Cbl, cobalamin]
- k−s dissociation rate constant [1]: ≈5 · 10^−7 s^−1
- k+s binding rate constant [1]: 9e+07 M⁻¹ s⁻¹

- Cbl binding capacity ([3]; rhHC): 95–99%
B1: rhHC: recombinant human haptocorrin expressed in HEK293 cells, tag removed, four excessive C-terminal residues (…LVPR) (protein)
chain: EICEVSEENYIRLKPLLNTMIQSNYNRGTSAVNVVLSLKLVGIQIQTLMQKMIQQIKYNVKSRLSDVSSGELALIILALGVCRNAEENLIYDYHLIDKLENKFQAEIENMEAHNGTPLTNYYQLSLDVLALCLFNGNYSTAEVVNHFTPENKNYYFGSQFSVDTGAMAVLALTCVKKSLINGQIKADEGSLKNISIYTKSLVEKILSEKKENGLIGNTFSTGEAMQALFVSSDYYNENDWNCQQTLNTVLTEISQGAFSNPNAAAQVLPALMGKTFLDINKDSSCVSASGNFNISADEPITVTPPDSQSYISVNYSVRINETYFTNVTVLNGSVFLSVMEKAQKMNDTIFGFTMEERSWGPYITCIQGLCANNNDRTYWELLSGGEPLSQGAGSYVVRNGENLEVRWSKYLVPR
modifications: 125I label (Iodogen method); glycosylated, highly sialylated; left off: Myc, C-terminal, cleaved | His6, C-terminal, cleaved
- AP active protein fraction after renaturing ([3]; apo-rhHC after Cbl saturation, GdnHCl dialysis and renaturing, preparation with AP = 0.95 before treatment): 0.95
- Internalisation into HepG2 cells [4, 6]: internalised
- Internalisation into HepG2 cells [4, 7]: not internalised

B2: native HC: native human haptocorrin purified from plasma of a patient with hepatocellular carcinoma (protein)
chain: T1 sequence (P20061 24-433)
modifications: 125I label (Iodogen method); glycosylated
notes: native human haptocorrin purified from plasma of a patient with hepatocellular carcinoma
- Internalisation into HepG2 cells [4, 6]: internalised
- Internalisation into HepG2 cells [4, 7]: not internalised
